These results are taken from patent US5153180A, “Fluorinated nucleosides and process for treating retrovirus infections therewith” (priority 1990, dated 1992).

Read-outs that look alike come from different tables or passages of the source. Bounds are passed on as bounds.

Series [1] deals with T1, HIV-associated reverse transcriptase (HIV-RT) (Human immunodeficiency virus type 1 group M subtype B, UniProt P04585).
T1 construct: HIV-associated reverse transcriptase (HIV-RT)
Put plainly: Inhibition of HIV-associated reverse transcriptase (polymerization of artificial templates). As to conditions: for IC50: read-out: ID50 HIV-RT. The arrangement: efficacy against HIV-associated reverse transcriptase: dose or concentration left out as unconfirmed. Format: biochemical. The text has this: At first the triphosphates of some compounds according to formula I were investigated for their ability to inhibit the polymerization of artificial templates (such as polyAoligodT and polyColigodG) catalyzed by HIV-associated reverse transcriptase (HIV-RT) according to the method described by A. D. Hoffman et al., Virology 147, 326, 1985. […] FdTTP, FdUTP and FdGTP are among the strongest inhibitors found so far for HIV-RT. In comparison the ID50 for 3'-azidothymidinetriphosphate was estimated under our conditions to be about […].

In series [2] the target is T2, cellular DNA polymerase α (Bos taurus, UniProt A0AAA9TD94).
T2 construct: purified from calf thymus; from tissue; host or cells: calf thymus
T2 sequence (A0AAA9TD94 1-1441): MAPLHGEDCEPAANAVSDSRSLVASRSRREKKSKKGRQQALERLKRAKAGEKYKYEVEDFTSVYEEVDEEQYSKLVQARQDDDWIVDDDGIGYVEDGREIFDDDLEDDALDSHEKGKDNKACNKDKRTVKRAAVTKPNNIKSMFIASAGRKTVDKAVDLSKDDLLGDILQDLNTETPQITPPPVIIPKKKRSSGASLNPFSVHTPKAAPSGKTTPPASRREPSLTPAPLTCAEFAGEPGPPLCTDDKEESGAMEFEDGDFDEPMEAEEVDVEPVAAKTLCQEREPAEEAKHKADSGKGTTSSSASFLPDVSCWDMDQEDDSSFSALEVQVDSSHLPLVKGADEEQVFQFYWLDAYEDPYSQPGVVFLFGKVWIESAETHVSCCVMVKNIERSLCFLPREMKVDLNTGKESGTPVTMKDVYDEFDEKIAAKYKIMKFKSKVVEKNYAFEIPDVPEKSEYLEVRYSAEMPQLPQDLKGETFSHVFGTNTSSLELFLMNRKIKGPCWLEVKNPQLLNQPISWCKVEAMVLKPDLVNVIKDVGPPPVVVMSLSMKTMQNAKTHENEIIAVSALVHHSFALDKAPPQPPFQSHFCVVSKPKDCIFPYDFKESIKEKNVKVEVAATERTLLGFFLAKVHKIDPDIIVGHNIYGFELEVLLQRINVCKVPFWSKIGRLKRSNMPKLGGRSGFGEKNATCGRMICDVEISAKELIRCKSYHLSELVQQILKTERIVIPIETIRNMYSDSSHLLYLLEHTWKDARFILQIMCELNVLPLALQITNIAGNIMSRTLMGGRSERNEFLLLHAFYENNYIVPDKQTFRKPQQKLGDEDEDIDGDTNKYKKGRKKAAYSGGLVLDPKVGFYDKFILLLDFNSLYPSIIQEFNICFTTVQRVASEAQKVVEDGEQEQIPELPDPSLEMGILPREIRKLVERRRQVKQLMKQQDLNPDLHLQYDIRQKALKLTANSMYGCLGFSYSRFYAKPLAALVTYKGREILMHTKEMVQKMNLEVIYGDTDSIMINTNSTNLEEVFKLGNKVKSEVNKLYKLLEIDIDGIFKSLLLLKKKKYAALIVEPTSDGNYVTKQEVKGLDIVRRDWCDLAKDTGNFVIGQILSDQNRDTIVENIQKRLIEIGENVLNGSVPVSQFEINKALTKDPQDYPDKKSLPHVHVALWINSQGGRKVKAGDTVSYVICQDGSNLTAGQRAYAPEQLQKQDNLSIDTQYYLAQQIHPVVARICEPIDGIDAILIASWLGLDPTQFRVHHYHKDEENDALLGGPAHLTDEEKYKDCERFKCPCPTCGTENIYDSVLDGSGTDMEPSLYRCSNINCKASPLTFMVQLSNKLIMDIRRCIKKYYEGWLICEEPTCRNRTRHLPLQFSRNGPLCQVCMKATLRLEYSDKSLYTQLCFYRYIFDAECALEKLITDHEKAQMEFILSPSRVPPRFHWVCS
The series can be described thus: Effect on cellular DNA polymerase α. Format: biochemical. As to conditions: enzyme purified from calf thymus; read-out: ID50 cellular polymerase α. The source says:
(§1) The strong inhibiting effect of 3'-fluoro-substituted deoxynucleotides against HIV-reverse transcriptase can be utilized therapeutically only if the cellular DNA polymerases, especially the DNA polymerase α which is required for the replication of the cellular DNA, remain substantially unaffected. […] The ID50 values for the DNA polymerase β responsible for cellular DNA repair vary between 1,8-15 μm. Both enzymes cellular DNA polymerase α and β were purified from calf thymus and tested according to the method of E. Matthes et al., Biomed. Biochim. Acta 44. K63 (1985).

The target of series [3] is T3, cellular DNA polymerase β (Bos taurus, UniProt Q27958).
T3 construct: purified from calf thymus; from tissue; host or cells: calf thymus
Put plainly: Effect on cellular DNA polymerase β. As to conditions: enzyme purified from calf thymus; read-out: ID50 cellular polymerase β. Format: biochemical.
Description: as §1

In another series the test system is HIV. The series can be described thus: Inhibition of the cytopathic effect of HIV on MT-4 cells. Format: cell-based. As to conditions: MT-4 cells, 6 days of incubation; for EC50: Human immunodeficiency virus 1, MT4, 144 h, read-out: 50% antiviral dose (ED50). On the procedure: (§2) Under in vitro conditions immortalized T-lymphocytes can be killed within few days by the cytopathic effect of HIV. […] For this purpose about 20,000 MT-4 cells (Harada et al. Science 229, 563 (1985)) Were infected with HIV (titer: 0.04 m.o.i.) and incubated in the presence or absence of varying concentrations of compounds according to formula I, with 10% fetal calf serum (FCS) in 200 μl RPMI medium. After 6 days of incubation the viable cells were counted that were excluded from trypan blue staining.
For orientation: Cytopathic effects are the visible damage that an infection or toxin causes in cultured cells.

The next series in a line: in vitro. As to conditions: human, mt-4 cells. How it is done: as §2
Series [4] has as its target T4, thymidine-phosphorylase from human spleen (Homo sapiens, UniProt P19971).
T4 construct: thymidine-phosphorylase from human spleen; from tissue; host or cells: human spleen
T4 sequence (P19971 11-482): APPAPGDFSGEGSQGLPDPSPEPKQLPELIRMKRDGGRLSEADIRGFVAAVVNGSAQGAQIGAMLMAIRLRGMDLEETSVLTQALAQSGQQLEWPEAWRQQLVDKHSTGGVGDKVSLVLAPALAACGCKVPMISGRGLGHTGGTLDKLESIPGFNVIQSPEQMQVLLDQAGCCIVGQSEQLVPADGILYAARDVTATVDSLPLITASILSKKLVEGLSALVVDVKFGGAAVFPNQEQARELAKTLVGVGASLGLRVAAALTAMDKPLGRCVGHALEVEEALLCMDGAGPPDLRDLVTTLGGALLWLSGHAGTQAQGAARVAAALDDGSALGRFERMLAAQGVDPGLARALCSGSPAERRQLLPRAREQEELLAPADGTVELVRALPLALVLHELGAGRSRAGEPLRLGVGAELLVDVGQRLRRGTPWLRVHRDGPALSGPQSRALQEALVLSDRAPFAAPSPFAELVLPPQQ
The series can be described thus: Phosphorolytic cleavage by thymidine-phosphorylase. Format: in vitro ADME. As to conditions: for metabolised at 3 h, 1000 µM: 1 mM, within 3 hours, read-out: extent of cleavage by thymidine-phosphorylase. The text has this:
Therefore FTdR, FddBrUrd and FddFUrd were investigated for their ability to be cleaved by thymidine-phosphorylase from human spleen.

Setting [5] is: concentration required for 50% inhibition.

Regarding `Cc1cn([C@H]2C[C@H](N=[N+]=[N-])[C@@H](CO[P@](=O)(O)O[P@](=O)(O)OP(=O)(O)O)O2)c(=O)[nH]c1=O` [3'-azidothymidinetriphosphate, reference compound], in series [1] (estimated under our conditions), the IC50 was ~50 µM.
`Cc1cn([C@H]2C[C@H](Cl)[C@@H](COP(=O)(O)OP(=O)(O)OP(=O)(O)O)O2)c(=O)[nH]c1=O` [3'-chloro-2',3'-dideoxythymidine triphosphate, reference compound]: the “efficacy against HIV-associated reverse transcriptase” value in series [1] is “completely ineffective”.
In the case of `CCc1cn([C@H]2C[C@H](F)[C@@H](COP(=O)(O)OP(=O)(O)OP(=O)(O)O)O2)c(=O)[nH]c1=O` [Compound F5EtdUTP, 2'-3'-dideoxy-3'-fluoro-5-ethyluridine-5'-triphphosphate], the IC50 came out at 7.5 µM in series [1] (setting [5]), 10 µM in series [2] and 4 µM in series [3].
Consider `O=c1[nH]c(=O)n([C@H]2C[C@H](F)[C@@H](COP(=O)(O)OP(=O)(O)OP(=O)(O)O)O2)cc1F` [Compound F5FdUTP, 2'-3'-dideoxy-3'-fluoro-5-fluorouridine-5'-triphosphate], for which the values for the IC50 in series [1] (setting [5]), in series [2] and in series [3] were 0.45 µM, > 200 µM and 15 µM, respectively.
Take `O=c1[nH]c(=O)n([C@@H]2O[C@H](CO)[C@@H](F)[C@@H]2O)cc1Br` [FaraBrU, 3'-deoxy-3'-fluoroarabinosyl-5-bromouracil]: in the series on HIV, the EC50 was > 100 µM. The CC50 at 144 h in “in vitro” was > 100 µM.
`Nc1ccn([C@@H]2O[C@H](CO)[C@@H](F)[C@@H]2O)c(=O)n1` [FaraC, 3'-deoxy-3'-fluoroarabinosylcytosine]: the EC50 with HIV was > 100 µM. The half-maximal cytotoxic concentration (CC50) at 144 h in “in vitro” was > 100 µM.
On to `O=c1ccn([C@@H]2O[C@H](CO)[C@@H](F)[C@@H]2O)c(=O)[nH]1` [FaraU, 3'-deoxy-3'-fluoroarabinosyluracil], for which, in the series with HIV, the EC50 is > 500 µM. In “in vitro”, the cytotoxic concentration (CC50) at 144 h was > 500 µM.
On to `Nc1nc2c(ncn2[C@H]2C[C@H](F)[C@@H](COP(=O)(O)OP(=O)(O)OP(=O)(O)O)O2)c(=O)[nH]1` [FdGTP, 2'-3'-dideoxy-3'-fluoroguanosine-5'-triphosphate], for which the IC50 in series [1] (setting [5]) was 0.05 µM; in series [2], > 200 µM; in series [3], 1.8 µM.
For the compound `O=c1ccn([C@H]2C[C@H](F)[C@@H](COP(=O)(O)OP(=O)(O)OP(=O)(O)O)O2)c(=O)[nH]1` [FdUTP, 2'-3'-dideoxy-3'-fluorouridine-5'-triphosphate], the IC50 in series [1] (setting [5]) is 0.07 µM; in series [2], > 200 µM; in series [3] it was 3 µM.
For the compound `Nc1ncnc2c1ncn2[C@H]1C[C@H](F)[C@@H](CO)O1` [FddAdo, 2'-3'-dideoxy-3'-fluoroadenosine], the EC50 in the series with HIV is > 100 µM. This compound showed a CC50 at 144 h in the series “in vitro” of 75 µM.
As for `O=c1[nH]c(=O)n([C@H]2C[C@H](F)[C@@H](CO)O2)cc1Br` [FddBrUrd, 2'-3'-dideoxy-3'-fluoro-5-bromouridine], the metabolised at 3 h, 1000 µM in series [4] was in the range of 3 to 8%. For the same compound, the EC50 in the series on HIV is 5 µM. This compound also showed a CC50 at 144 h in the series “in vitro” of 190 µM.
For the compound `N#Cc1cn([C@H]2C[C@H](F)[C@@H](CO)O2)c(=O)[nH]c1=O` [FddCNUrd, 2'-3'-dideoxy-3'-fluoro-5-cyanouridine], the “50% antiviral dose (ED50)” value in the series with HIV is given as “not detectable”. For the same compound, the CC50 at 144 h in the series “in vitro” is > 500 µM.
Consider `Nc1ccn([C@H]2C[C@H](F)[C@@H](CO)O2)c(=O)n1` [FddCyt, 2'-3'-dideoxy-3'-fluorocytidine], for which the EC50 in the series with HIV stood at 25 µM. Moreover, the midpoint of cytotoxicity in the series “in vitro”, the CC50 at 144 h, lay at 62 µM.
Turning to `Nc1nc(N)c2ncn([C@H]3C[C@H](F)[C@@H](CO)O3)c2n1` [FddDAPR, 2'-3'-dideoxy-3'-fluoro-2,6-diaminopurineriboside], the EC50 with HIV was 6 µM. Moreover, the half-maximal cytotoxic concentration (CC50) at 144 h in the series “in vitro” stood at 480 µM.
Consider `CCc1cn([C@H]2C[C@H](F)[C@@H](CO)O2)c(=O)[nH]c1=O` [FddEtUrd, 2'-3'-dideoxy-3'-fluoro-5-ethyluridine], for which the EC50 in the series on HIV is > 500 µM. For the same compound, the half-maximal cytotoxic concentration (CC50) at 144 h in “in vitro” was > 500 µM.
For the compound `O=c1[nH]c(=O)n([C@H]2C[C@H](F)[C@@H](CO)O2)cc1F` [FddFUrd, 2'-3'-dideoxy-3'-fluoro-5-fluorouridine], the metabolised at 3 h, 1000 µM in series [4] fell in the range of 3 to 8%. The “50% antiviral dose (ED50)” value in the series with HIV is listed as “not detectable”. Also, in “in vitro”, the CC50 at 144 h was > 200 µM.
For the compound `Nc1nc2c(ncn2[C@H]2C[C@H](F)[C@@H](CO)O2)c(=O)[nH]1` [FddGuo, 2'-3'-dideoxy-3'-fluoroguanosine], the EC50 in the series on HIV came to 5 µM. Also, in “in vitro”, the cytotoxic concentration (CC50) at 144 h was 250 µM.
Consider `O=c1[nH]c(=O)n([C@H]2C[C@H](F)[C@@H](CO)O2)cc1CO` [FddHMUrd, 2'-3'-dideoxy-3'-fluoro-5-hydroxymethyluridine], for which, in the series with HIV, the EC50 is > 500 µM. Further, the half-maximal cytotoxic concentration (CC50) at 144 h in “in vitro” is > 500 µM.
Consider `Cc1cn([C@H]2C[C@H](F)[C@@H](CO)O2)c(=O)nc1N` [FddMCyt, 2'-3'-dideoxy-3'-fluoromethylcytidine], for which the EC50 in the series on HIV was 125 µM. This compound returned a CC50 at 144 h in “in vitro” of 125 µM.
`Cc1cn([C@H]2C[C@H](O)[C@@H](CO)O2)c(=O)[nH]c1=O` [thymidine, reference compound]: in series [4], the metabolised at 2 h stood at 90%.

A word on the CC50: it is the concentration that lowers cell viability or growth by half.
